Assay results: US20150254400A1, “GROUPING FOR C[…] CANCER” (AGENCY FOR SCIENCE, TECHNOLOGY AND RESEARCH, priority 2012, published 2015)
Entries after “also recorded” stand apart in the source; their conditions may differ.

Legend:
[1] = tested on: NCI-60 cell lines; test: 5-FU sensitivity of NCI-60 cell lines classified into the three subtypes by GCPred; format: cell-based; conditions: metabolic versus invasive subtype NCI-60 cells, Wilcoxon rank sum test p=0.036
Description: In addition, GCPred was used to classify the NCI-60 cell lines into the three subtypes.

[2] = tested on: gastric cancer cell lines; test: 5-FU sensitivity in vitro of gastric cancer cell lines assigned to the three subtypes by GCPred; format: cell-based
Description: It was then examined whether there are differences in 5-FU sensitivity, in vitro, between gastric cancer cell lines assigned to the three subtypes.
GCPred was first used to predict the subtypes of 28 cell lines for which 5-FU GI50 values had previously been determined.

[3] = tested on: gastric adenocarcinoma; test: Patient survival, surgery plus adjuvant 5-FU based therapy versus surgery alone (Kaplan-Meier, Cox regression); format: in vivo, human; conditions: for HR (95% CI): Multivariate Cox (treatment + stage)
Method: A study was done to determine whether there was a difference in survival among the three subtypes. In this study, cancer-specific death was considered as an event unless stated otherwise.
Data from 188 patients in the SG201 Singapore cohort for which survival information was available was analyzed.
Many of the patients in the Singapore cohort were treated with 5-FU. To investigate the effect of 5-FU treatment on patient survival, the survival of Singapore and Australian patients treated with surgery alone were compared to that of patients treated by surgery and adjuvant 5-FU based therapy.
The clinical decision on administration of 5-FU was based on multiple factors, including the patient's general health, risk of relapse (estimated largely by disease stage), treatment-related toxicities, and patient preference.
FIGS. 8A to F show Kaplan-Meier plots for surgery plus 5-FU versus surgery alone for each of the three subtypes.

O=c1[nH]cc(F)c(=O)[nH]1 [5-FU, 5-fluorouracil]
Sensitivity to 5-FU [1]: preferential sensitivity | Sensitivity to 5-FU (GI50 values previously determined) ([2]; 28 cell lines, metabolic versus proliferative subtype cells, Wilcoxon rank sum test p=1.47×10-3): significantly more sensitive | Chemosensitivity in cell lines ([2]; metabolic subtype cell lines): 5-FU | Hazard Ratio (95% CI), treatment ([3]; 197 patients in SG and AU cohorts, model ~subtype * treatment + stage, 5-FU vs surgery alone (=1)): 1.437 (0.728, 2.835) | Hazard Ratio (95% CI), subtype: treatment interaction, Invasive: 5-FU ([3]; 197 patients in SG and AU cohorts, model ~subtype * treatment + stage, reference Proliferative: 5-FU (=1)): 0.722 (0.287, 1.817) | HR (95% CI) ([3]; Australian cohort, invasive subtype, 5-FU vs surgery alone (=1)): 0.222 (0.059, 0.833) | HR (95% CI) ([3]; Australian cohort, proliferative subtype, 5-FU vs surgery alone (=1)): 1.938 (0.369, 10.170) | HR (95% CI) ([3]; Singapore cohort, invasive subtype, 5-FU vs surgery alone (=1)): 1.062 (0.469, 2.407) | HR (95% CI) ([3]; Singapore cohort, proliferative subtype, 5-FU vs surgery alone (=1)): 2.105 (0.879, 5.043) | Deaths among 5-FU treated patients ([3]; Singapore cohort, metabolic subtype): no deaths | Hazard ratio (95% CI) ([3]; Univariate Cox regression, Singapore cohort, all subtypes, 5-FU vs surgery alone (=1), cancer-specific death): 1.656 (0.983, 2.788) | 5-FU effect on patient survival ([3]; invasive subtype): No effect | 5-FU effect on patient survival ([3]; metabolic subtype): Beneficial | Survival, Kaplan-Meier, surgery plus 5-FU versus surgery alone ([3]; metabolic-subtype patients): benefited; also recorded: better | Disease-free survival, Kaplan-Meier, 5-FU treatment compared to surgery alone ([3]; metabolic-subtype patients, log rank test p=0.025): benefited significantly | Benefit from 5-FU treatment by multivariate Cox regression ([3]; patients with invasive and proliferative subtypes): does not suggest any benefit | Survival, Kaplan-Meier, surgery plus 5-FU versus surgery alone ([3]; patients with invasive and proliferative subtypes, not adjusted for TNM stage): worse | 5-FU effect on patient survival ([3]; proliferative subtype): No effect
